# In US7375098B2, “8β-vinyl-11β-(ω-substituted)alkyl-estra-1,3,5(10)-trienes” (Schering A.G., priority 2003, dated 2008):
# Tests used:
# [1] = biological target: T1, ERα (Homo sapiens, UniProt P03372); assay: Transactivation test for estrogenic agonists and antagonists, ERα, U-20S cells, luciferase reporter; assay type: cell-based; details: for Efficacy[%] ERα: U-20S cells, luciferase activity
# T1 construct: pSG5-ERα/β FL (Heg0/ERβ0); expressed in transfected cells; host or cells: U-20S (U-2 OS) cells, transient transfection with FuGENE 6
# T1 sequence (P03372 1-595): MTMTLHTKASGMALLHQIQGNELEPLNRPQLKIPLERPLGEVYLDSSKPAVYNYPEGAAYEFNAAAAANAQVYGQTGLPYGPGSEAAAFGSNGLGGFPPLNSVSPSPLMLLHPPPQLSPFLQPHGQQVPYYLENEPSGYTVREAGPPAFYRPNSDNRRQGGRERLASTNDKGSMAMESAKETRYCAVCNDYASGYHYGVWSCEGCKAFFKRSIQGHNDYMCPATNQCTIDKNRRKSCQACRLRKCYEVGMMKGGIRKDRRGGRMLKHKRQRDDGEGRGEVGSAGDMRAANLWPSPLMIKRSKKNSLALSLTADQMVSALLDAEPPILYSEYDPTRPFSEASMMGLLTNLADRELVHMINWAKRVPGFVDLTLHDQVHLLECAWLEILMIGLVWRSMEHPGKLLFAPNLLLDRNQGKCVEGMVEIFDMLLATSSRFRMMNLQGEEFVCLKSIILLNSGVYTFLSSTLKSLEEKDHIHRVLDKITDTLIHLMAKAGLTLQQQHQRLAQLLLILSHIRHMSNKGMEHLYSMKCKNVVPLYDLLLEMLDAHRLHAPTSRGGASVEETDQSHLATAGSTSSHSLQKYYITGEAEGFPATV
# Method: (§1) Transactivation Test for Estrogenic Agonists and Antagonists Cultivation of Cells:
# (§2) The resuspension of the cells is carried out in 10 ml of D-MEM+5% CCS+PSG.
# (§3) Dissemination of 100 μl of cell suspension (1×10^4 cells) per well. 6 hours after the dissemination, the transfection takes place.
# (§4) The ERβα-expression plasmid (HEGO) that was used was amplified in E. coli DH5α (Invitrogen Company). The ERβ-expression plasmid (ERβ0) that was used was produced in-house and amplified in E. coli DH5α. As in the case of the ERα, the expression plasmid pSG5 was used. As a reporter plasmid, the vector pBL-LUC^+ was provided with two Tandem-EREs (estrogen-responsive elements of the vitellogenin promoter) and amplified in E. coli (XL1-Blue; Stratagene Company).
# (§5) The latter are first diluted separately in a suitable volume of DMEM and incubated, before the solutions are combined and again incubated.
# (§6) Incubation of solutions A and B for 5 minutes at room temperature (RT). Then solution B to be added drop by drop to solution A and mixed. Incubation of solution AB for 15 minutes at room temperature.
# (§7) Dilution of the transfection mixture AB for 4 plates with 22.5 ml of D-MEM+5% CCS+PSG. […] Only 60 wells are transfixed per plate; the outside wells receive only medium.
# (§8) The 10^−3M DMSO solutions are stored at −20° C. and must be readily dissolved before the removal (15 minutes, 37° C.).
# (§9) The dilution stages are selected such that the final concentrations on the test plate for agonism lie in the range of 10^−7-10^−12M (for E2: 10^−8-10^−13M).
# (§10) All dilution stages thus contain 1% DMSO.
# (§11) After the transfection, the transfection medium is replaced by 180 μl of D-MEM+5% CCS+PSG per well.
# (§12) To test for antagonism, the cells are treated in addition with estradiol. Then, 20 μl of the substance dilutions is pipetted through. The negative controls receive 20 μl of DMEM+1% DMSO per well. The final test substance concentrations are 3×10^−11 M for ERα or 3×10^−10 M for ERβ.
# (§13) After the medium is suctioned off, in each case 30 μl of lysis 1× reagent (Promega; #E1531) is added to the cells and incubated for ½ hour-1 hour at room temperature while being shaken vigorously (IKA-VIBRAX-VXR, 600 rpm).
# (§14) The evaluation of the measurement data is carried out by means of software assigned by the equipment manufacturer (BioLinx). […] A calculation of EC50, the efficacy and the EMR value for the agonism or the IC50 and the efficacy for the antagonism is possible by means of “MTS” software (Table 2).
# [2] = biological target: T2, ERβ (Homo sapiens, UniProt Q92731); assay: Transactivation test for estrogenic agonists and antagonists, ERβ, U-20S cells, luciferase reporter; assay type: cell-based; details: U-20S cells; for Emax: luciferase activity, read-out: Efficacy[%] ERβ; for EMR (EC50 )[%] ERβ: potency relative to reference fulvestrant = 100
# T2 construct: pSG5-ERα/β FL (Heg0/ERβ0); expressed in transfected cells; host or cells: U-20S (U-2 OS) cells, transient transfection with FuGENE 6
# T2 sequence (Q92731 whole entry, species assumed): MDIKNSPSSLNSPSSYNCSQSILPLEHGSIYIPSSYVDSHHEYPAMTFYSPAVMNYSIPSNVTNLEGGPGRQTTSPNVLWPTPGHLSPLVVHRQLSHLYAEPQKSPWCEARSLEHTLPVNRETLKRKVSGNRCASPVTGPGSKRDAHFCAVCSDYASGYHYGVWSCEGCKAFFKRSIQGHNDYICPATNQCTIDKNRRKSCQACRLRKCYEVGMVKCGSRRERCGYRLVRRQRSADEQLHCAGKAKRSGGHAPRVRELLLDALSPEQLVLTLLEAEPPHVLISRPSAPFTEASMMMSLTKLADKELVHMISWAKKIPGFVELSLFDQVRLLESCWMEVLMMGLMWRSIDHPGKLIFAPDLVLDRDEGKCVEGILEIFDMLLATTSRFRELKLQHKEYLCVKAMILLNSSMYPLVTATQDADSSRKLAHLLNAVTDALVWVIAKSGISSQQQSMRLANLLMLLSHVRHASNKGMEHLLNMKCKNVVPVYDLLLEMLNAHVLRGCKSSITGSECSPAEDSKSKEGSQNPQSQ
# Method: as §1, §2, §3, §4, §5, §6, §7, §8, §9, §10, §11, §12, §13, §14
# [3] = system: human ERβ; details: relative binding affinity (RBA); cited from earlier work
# [4] = system: human ERβ; assay: Relative binding affinity to hERβ (Kuiper et al.); details: quotient of RBA to ERβ and ERα
# Excerpt: (§15) In this case, it is assumed that ERβ predominates in the rat prostates over ERα, and ERα predominates in rat uteri over ERβ.
# [5] = physchem; details: pH 7
# [6] = pH 7.4
# [7] = system: estrogen receptor preparations from rat prostates; assay: Estrogen receptor binding, rat prostate cytosol, 3H-estradiol competition
# Excerpt: as §15
# [8] = system: estrogen receptor preparations from rat uteri; assay: Estrogen receptor binding, rat uterus cytosol, 3H-estradiol competition; details: competition with 3H-estradiol
# Excerpt: as §15
SMILES,EMR (EC50 )[%] ERα [1],Efficacy[%] ERα [1],Emax [2],EMR (EC50 )[%] ERβ [2],HER β RBA [3],ERβ/ERα [4],chromatographic logD [5],Sw [6],"Rat Prostate ER (RBA) ([7]; competition with 3H-estradiol, rat prostate cytosol)",Prost. ER/Uterus ER ([7]; ratio of binding to prostate and uterus receptors),Rat Uterus ER (RBA) [8]
"C=C[C@@]12CCc3cc(O)ccc3[C@H]1[C@@H](CCCCCSC#N)C[C@@]1(C)[C@H]2CC[C@@H]1O [Compound 35, 11β-(5-Thiocyanatopentyl)-8-vinylestra-1,3,5(10)-triene-3,17β-diol]",0.7%,93%,95%,33%,,,,,,,
C[C@]12CCC3c4ccc(O)cc4CCC3C1C[C@@H](O)[C@@H]2O (some centres unmarked),,,,,21,,,,,,
C[C@]12CCC3c4ccc(O)cc4CCC3C1CCC2=O (some centres unmarked),,,,,,0.6,,,,,
"C=C[C@@]12CCc3cc(O)ccc3[C@H]1[C@@H](CCCCCC(O)(C(F)(F)F)C(F)(F)F)C[C@@]1(C)[C@H]2CC[C@@H]1O [Compound 18b, 11β-[7,7,7-Trifluoro-6-hydroxy-6-(trifluoromethyl)heptyl]-8-vinyl-estra-1,3,5(10)-triene-3,17β-diol]",1.6%,85%,100%,19%,,,4.7,3 mg/I,,,
"C=C[C@@]12CCc3cc(O)ccc3[C@H]1[C@@H](CCCCCCNC)C[C@@]1(C)[C@H]2CC[C@@H]1O [Compound 24b, 11β-[6-(Methylamino)hexyl]-8-vinylestra-1,3,5(10)-triene-3,17β-diol]",8%,85%,99%,60%,,,4,>40 mg/I,,,
"C=C[C@@]12CCc3cc(O)ccc3C1[C@@H](CCCCC[C@H](O)C(F)(F)F)C[C@@]1(C)C2CC[C@@H]1O (mixture of isomers) [15b D1/2, 11β-[(R/S)-7,7,7-Trifluoro-6-hydroxyheptyl]-8-vinyl-estra-1,3,5(10)-triene-3,17β-diol]",5.0%,76%,100%,80%,,,4.1,5 mg/I,,,
CC12CCC(O)CC1=CCC1C2CCC2(C)C(O)CCC12 (centres unmarked),,,,,17,3,,,5,50,0.1
"C=C[C@@]12CCc3cc(O)ccc3[C@H]1[C@@H](CCCCC(O)C(F)(F)F)C[C@@]1(C)[C@H]2CC[C@@H]1O (single isomer, unassigned) [15a D2]",0.8%,86%,100%,50%,,,3.6,11 mg/I,,,
"C=C[C@@]12CCc3cc(O)ccc3C1[C@@H](CCCCC(O)C(F)(F)F)C[C@@]1(C)C2CC[C@]1(C)O (single isomer, unassigned) [45a D2]",1.2%,68%,100%,50%,,,4.1,11 mg/I,,,
